Test results taken from article PMC12706794, “Identification and Characterization of a Small-Molecule Inhibitor of the Pseudomonas aeruginosa SOS Response” (ACS Infectious Diseases, 2025).
≈ marks a conversion by molar mass, not a printed value.

Tests used:
RecAPa [1] = biological target: T1, RecAPa (Pseudomonas aeruginosa, UniProt P08280); assay: Differential scanning fluorimetry (thermal shift) on RecAPa; format: binding, P. aeruginosa; settings: read-out: RecAPa ΔTm compared to the control
T1 construct: made in house; host or cells: E. coli BL21(DE3)
Protocol: (§1) To elucidate whether A12 binds RecAPa or LexAPa, the two proteins were submitted to a thermal shift assay by DSF, in the presence of different concentrations of A12 (30–1000 μM; Figure A–C). Controls devoid of A12 were included, as well.
(§2) Fluorescence of the SyproOrange dye was measured by a StepOne Real-Time PCR System (Applied Biosystems), while increasing the temperature from 25 to 95 °C (0.5 °C/min). Normalized fluorescence intensity curves were compared to observe macroscopic differences in the recorded melting profiles, while derivative curves were analyzed to find exact protein melting temperatures (T m, corresponding to derivative curve minimum). Melting curves were repeated twice, and duplicates were considered coherent if T m differences were lower than 1 °C.
Target sequence in this assay (P08280 2-346): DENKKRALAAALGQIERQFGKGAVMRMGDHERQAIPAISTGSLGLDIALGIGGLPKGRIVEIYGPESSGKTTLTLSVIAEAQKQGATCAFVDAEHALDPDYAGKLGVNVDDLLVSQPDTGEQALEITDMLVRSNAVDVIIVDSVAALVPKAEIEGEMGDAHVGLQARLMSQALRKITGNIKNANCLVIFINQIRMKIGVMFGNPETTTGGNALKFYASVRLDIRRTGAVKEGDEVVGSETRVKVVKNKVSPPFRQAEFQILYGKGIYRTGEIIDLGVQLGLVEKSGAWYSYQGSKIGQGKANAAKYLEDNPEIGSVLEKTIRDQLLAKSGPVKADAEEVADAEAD

LexAPa S125A [2] = biological target: T2, LexAPa S125A (Pseudomonas aeruginosa, UniProt P37452, S125A); assay: Differential scanning fluorimetry (thermal shift) on LexAPa S125A; format: binding, P. aeruginosa; settings: A12 above 100 μM
T2 construct: Concerning full-length LexAPa ^S125A, a biphasic melting curve was obtained for the pure protein; made in house; host or cells: E. coli BL21(DE3)
T2 sequence (P37452 2-204 S125A): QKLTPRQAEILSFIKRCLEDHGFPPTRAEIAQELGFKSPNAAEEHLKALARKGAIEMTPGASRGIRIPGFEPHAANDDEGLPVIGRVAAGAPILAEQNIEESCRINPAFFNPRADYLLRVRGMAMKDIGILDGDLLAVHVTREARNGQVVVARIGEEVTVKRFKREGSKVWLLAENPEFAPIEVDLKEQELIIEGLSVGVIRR
Protocol: as §1, §2

RecAPa [3] = biological target: T1, RecAPa; assay: Isothermal titration calorimetry on RecAPa; format: binding, P. aeruginosa
Protocol: (§3) To investigate deeper the binding of A12 to the two members of the P. aeruginosa SOS complex, ITC was performed on RecAPa and LexAPa ^S125A (Figure D,E). The integrated binding isotherms of both proteins were best fitted by a “one set of sites” model.
(§4) 64 μM RecAPa and 58.5 μM LexAPa ^S125A were titrated with the selected compound (2.5 mM solution) using a Microcal PEAQ-ITC instrument (Malvern Panalytical) at 25 °C with a stirring rate of 750 rpm. Proteins and the ligand were dissolved in ITC Buffer (20 mM Tris–HCl, 150 mM NaCl, 5% v/v DMSO, pH 7.5). An initial 0.4 μL injection (excluded from data analysis) was followed by 24 injections of 1.5 μL with a spacing of 150 s between each addition. Blank experiments were performed by injecting the titrant compound in a protein-devoid ITC Buffer. Blank curves were subtracted from all of the experiments. Data were analyzed by using the MicroCal PEAQ-ITC Evaluation software (Malvern Panalytical). Integrated heat signals were fitted by a “one set of sites” binding model to obtain enthalpy changes (ΔH), dissociation constants (K D), and stoichiometry of binding.
Target sequence in this assay (P08280 whole entry): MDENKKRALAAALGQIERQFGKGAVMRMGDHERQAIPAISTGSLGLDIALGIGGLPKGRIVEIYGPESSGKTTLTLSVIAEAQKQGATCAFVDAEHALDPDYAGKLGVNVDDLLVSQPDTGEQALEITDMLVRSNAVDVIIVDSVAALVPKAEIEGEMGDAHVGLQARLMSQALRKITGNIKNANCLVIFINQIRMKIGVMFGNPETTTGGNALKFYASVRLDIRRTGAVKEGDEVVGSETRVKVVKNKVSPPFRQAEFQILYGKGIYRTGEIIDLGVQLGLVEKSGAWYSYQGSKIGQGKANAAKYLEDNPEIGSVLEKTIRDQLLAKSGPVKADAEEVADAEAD

LexAPa S125A [4] = biological target: T2, LexAPa S125A; assay: Isothermal titration calorimetry on LexAPa S125A; format: binding, P. aeruginosa
Protocol: as §3, §4

P. aeruginosa PAO1 = assay: Antimicrobial susceptibility testing (MIC); format: cell-based, P. aeruginosa PAO1 (ATCC 15692); settings: A12 (32 μg/mL) (−)
Protocol: The MIC of compound A12 and antibiotics was determined by using the Clinical Laboratory Standard Institute (CLSI) recommendations with minor modifications. […] Microplates were incubated in a humidified incubator for 18 h at 37 °C, and the bacterial growth was quantified by OD600. According to CLSI, MICs are defined as the lowest concentrations of antimicrobial agents that prevent visible growth.

A549 cells = assay: Cytotoxicity assessment by MTT assay, A549; format: cell-based, Human; settings: combination of ciprofloxacin 0.5 μg/mL and A12 100 μg/mL, 3 h
Protocol: (§5) A549 cells were seeded in flat-bottom 96-well plates at 5 × 10^4 cells/well. THP-1 monocytes were differentiated into macrophages using PMA as described above, rested in PMA-free medium, detached by trypsinization, and seeded at 5 × 10^4 cells/well. Plates were incubated overnight to allow cell attachment. […] Test medium was then removed and replaced with fresh medium containing 0.5 mg/mL 3-(4,5-dimethylthiazol-2-yl)-2,5-diphenyltetrazolium bromide (MTT). After a 2 h incubation, the medium was discarded, formazan crystals were solubilized with 100 μL of DMSO, and absorbance was measured at 570 nm using a spectrophotometer (Varioskan LUX Multimode Microplate Reader, Thermo Fisher Scientific). Cell viability was expressed as a percentage relative to the untreated controls.

[5] = system: THP-1-derived macrophages; assay: Cytotoxicity assessment by MTT assay, THP-1-derived macrophages; format: cell-based, Human; settings: combination of ciprofloxacin 0.5 μg/mL and A12 100 μg/mL, 3 h
Protocol: as §5

[6] = Solubility in aqueous buffers; format: physicochemical; settings: aqueous buffer, read-out: Solubility in aqueous buffers, concentration above which it strongly worsened
RecAPa [7] = biological target: T1, RecAPa; assay: ESI-MS analysis of RecAPa preincubated with A12; format: binding, P. aeruginosa; settings: 2 mM A12, 2 h at 25 °C; condensation, Lys285
Protocol: Then, ESI-MS analysis was carried out on both RecAPa and LexAPa alone and preincubated with A12 (referred to as RecAPa-A12 and LexAPa-A12, respectively).
(§6) MS analysis was carried out on 5 μL samples of compound A12 (2 mM), of the proteins 6His-LexAPa and 6His-RecAPa (50 μM), and of the same proteins incubated with 2 mM A12 (2 h incubation at 25 °C, 10% v/v DMSO in 100 mM NaHCO3 pH 7.0). Aliquots of the latter samples were treated with 5 mM dithiothreitol (DTT) for 1 h at 25 °C before being buffer-exchanged in 100 mM NaHCO3 at pH 7.0. Samples were analyzed by an electrospray ionization (ESI) mass spectrometer equipped with a Xevo G2-XS ESI-Q-TOF mass spectrometer (Waters Corporation, Milford, Massachusetts, USA). Measurements were carried out at 1.5–1.8 kV capillary voltage and 30–40 V cone voltage.
Tryptic digestion was obtained at a 1:20 trypsin to protein ratio (by weight) after the incubation of the proteins (6His-LexAPa and 6His-RecAPa) with chemical compound A12. The reaction was left at 37 °C overnight and then stopped by freezing at – 20 °C. Proteolytic mixtures were analyzed by LC–MS, using an Agilent AdvanceBio Peptide Map column (2.1 × 150 mm × 2.7 μm; Santa Clara, CA, USA) connected to an Acquity H-Class instrument (Waters Corporation, Milford, Massachusetts, USA). […]
Target sequence in this assay (P08280 whole entry): as above

[8] = ESI-MS analysis of A12 in buffer; format: physicochemical; settings: 2 mM A12 in FP assay buffer, no DTT
Protocol: The same analysis was conducted after treatment of A12 with 2 mM DTT (Figure B). In this sample, the MS signals corresponding to the disulfide adduct were absent, leading to the conclusion that the dimerization of A12 by the formation of a disulfide bridge can occur under physiological conditions. When in monomeric form, the compound is likely degraded and/or not detectable by MS under the tested experimental conditions.
as §6

Compound: O=C(O)CCNc1ccccc1S [A12, 3-(2-sulfanylanilino)propanoic acid]
- ΔTm at 1000 µM (RecAPa [1]): 10 °C
- LexAPa S125A flexus of monophasic melting curve (LexAPa S125A [2]): 52.0 °C
- Kd (RecAPa [3]): 18 ± 3 µM
- Kd (LexAPa S125A [4]): 7.4 ± 0.5 µM
- MIC on P. aeruginosa PAO1 (P. aeruginosa PAO1): no antimicrobial activity
- MIC (P. aeruginosa PAO1; Pseudomonas aeruginosa, PAO1): > 32 µg/mL
- Cell viability compared to the untreated control (A549 cells): higher than 80%
- Cell viability compared to the untreated control [5]: higher than 80%
- solubility [6]: ~500 µM (≈ 98.6 µg/mL)
- Mass difference of A12-modified RecAPa versus unmodified protein (RecAPa [7]): 179 Da
- Form of A12 in solution by MS [8]: mainly exists as a disulfide-bridged self-dimer in solution
